Where two headings read alike, the source gives them in different places.
Assays:
MES-SA [1] = assay: cytotoxicity in MES-SA in the silicon microphysiometer
MES-SA [2] = conditions: previously characterized; cited from earlier work
Dx5 = assay: cytotoxicity in Dx5 in the silicon microphysiometer; conditions: for time at which cytotoxicity is manifest: 100 μM, Dx5
[3] = tested on: murine macrophage-like line P388D1; assay: acidification rate of P388D1 cells trapped in etched wells; type: cell-based
Method: For many types of mammalian cells, a confluent monolayer (equivalent to about 10^7 cells/mL) commonly produces acidification rates within a factor of two of 100 μV/s. At 59 mV per pH and medium buffer capacity of 1 mM, this corresponds to a calculated net rate of H+ production of ~1·10^8 /s for a typical cell. The metabolic sources of these protons depend on the nutrients in the culture medium and the metabolic pathways that are active in the cells. Some insight into this can be gained using auxiliary biochemical measurements and specific metabolic poisons.
It is reversible, with a recovery time of about 20 min. after the removal of the uncoupler. Dose-response experiments show a maximum stimulation of the acidification rate near 2-5 μM CCCP, Presumably the mechanism is a combination of increased CO2 production and the stimulation of glycolysis to maintain homeostasis.

L cells [4] = assay: cells; conditions: Mus musculus, 8 min, read-out: peak metabolic activity
L cells [5] = tested on: L cells
MDCK cells [6] = assay: cells; conditions: Canis lupus familiaris
Method: MDCK cells in a confluent T-75 flask were trypsinized in order to remove them from their growth container. The cells were centrifuged at 2000 RPM for 5 minutes and the supernatant was discarded. The cells were resuspended in 5 mL of medium and centrifuged for 5 minutes at 3000 RPM. […] The cells were centrifuged for 3 minutes at 3000 RPM to pellet the cells. A 2 μL aliquot was taken directly from the cell pellet and spread over an approximate area of 40 mm^2 on the silicon sensor surface (in a partially assembled chamber).

MDCK cells [7] = assay: metabolic rate of MDCK cells grown on the silicon sensor surface; type: cell-based, canine; conditions: Canis lupus familiaris, MDCK
Proteus mirabilis = type: cell-based; conditions: carbon source in medium; FIG. 22
Description: While this method of serial delivery of selective substrates has certain potential advantages, parallel delivery of selective substrates to separate catches of bacteria could also be useful under certain circumstances. Furthermore, if bacteria are used for screening for antibiotic susceptibility or antibiotic activity, parallel delivery to separate catches may well be more appropriate because of potential problems of intereactions of drugs.
The bacteria, E. coli and Proteus mirabilis , were prepared as suspensions of about 5×10^8 cells/mL in a growth medium and then diluted into a sterile test medium containing glucose (Bactopeptone, 2 g/L; NACl, 5 g/L; K2 HPO4, 1.7 mM; glucose, 1 g/L; pH 7.3 ). With the controlling electrode piston in the raised position, as disclosed in pending U.S. patent application, Ser. No. 876,925, filed Jun. 20, 1986, now U.S. Pat. No. 5,292,846 one mL of bacterial suspension containing a known number of bacteria was flowed through the device such that the cells were retained adjacent to the silicon sensor surface by a Nucleopore membrane situated parallel to the surface. The cells were pulsed with the same glucose containing test medium, the piston was then lowered to decrease the volume surrounding the cells, and the change in pH due to bacterial metabolism was monitored. […] After lowering the piston the pH change was again monitored. […]

MDCK cells [8] = assay: metabolic rate of MDCK cells exposed to MgCl; type: cell-based, canine; conditions: 10 mM MgCl
[9] = tested on: normal human keratinocytes; assay: metabolic rate of EGF-starved normal human keratinocytes; type: cell-based
Method: Normal human keratinocytes require epidermal growth factor (EGF) for proliferation without differentiation. Keratinocytes (from Clonetics, Inc.) were cultured in the absence of EGF for a period of 24 hours prior to the experiment. For the experiment, the keratinocytes were assembled into four flow chambers and the alternating stop-flow sequence was initiated with medium containing no EGF. At the time indicated by the arrow in FIG. 43, the syringes containing medium were changed on all four flow chambers. The second medium contained 5 ng/ml mouse EGF, or 1.25 μg/ml of a neutralizing rabbit anti-mouse-EGF polyclonal IgC, or both. A control with no EGF or IgC was also run. […] Addition of the anti-EGF antibody alone had no effect.
In a separate experiment, the growth medium for the normal human epidermal keratinocytes contained 10 ng/mL murine EGF, a substance found to be mitogenic for keratinocytes. […] It does show the same rising baseline, which probably indicates some combination of cell proliferation and adaptation to the environmental conditions in the flow chamber.
Stimulation of acidification rate was observable down to 0.1 ng/mL EGF. In a control experiment, the stimulation was abolished by a monoclonal antibody to EGF that is known to block receptor binding.

[10] = tested on: mouse and human fibroblasts; conditions: previously reported; cited from earlier work
[11] = tested on: vesicular stomatitis virus (VSV); type: cell-based; conditions: VSV-infected L cells, FIGS. 36-39
[12] = target: T1, rat M1 muscarinic receptor (Rattus norvegicus, UniProt P08482); assay: metabolic rate of M1C-2 cells (B82 cells transfected with rat M1 muscarinic receptor); conditions: atropine alone, FIG. 28
T1 sequence (P08482 1-460): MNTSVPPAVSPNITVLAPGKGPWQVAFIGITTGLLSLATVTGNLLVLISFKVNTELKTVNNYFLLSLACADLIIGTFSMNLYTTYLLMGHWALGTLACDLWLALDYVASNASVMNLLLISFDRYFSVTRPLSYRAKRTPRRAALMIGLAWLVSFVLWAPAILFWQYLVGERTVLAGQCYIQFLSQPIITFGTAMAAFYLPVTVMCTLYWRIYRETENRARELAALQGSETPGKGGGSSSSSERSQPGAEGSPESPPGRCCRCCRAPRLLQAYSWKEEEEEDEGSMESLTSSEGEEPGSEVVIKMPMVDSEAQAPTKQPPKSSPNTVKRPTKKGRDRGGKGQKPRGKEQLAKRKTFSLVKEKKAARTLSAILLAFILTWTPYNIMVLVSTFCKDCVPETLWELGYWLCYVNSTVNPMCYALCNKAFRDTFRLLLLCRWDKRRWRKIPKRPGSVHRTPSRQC

E. coli = assay: response of E. coli to antibiotics in the flow cell; type: cell-based; conditions: FIG. 24

CC[C@]1(O)C[C@H]2CN(CCc3c([nH]c4ccccc34)[C@@](C(=O)OC)(c3cc4c(cc3OC)N(C=O)[C@H]3[C@@](O)(C(=O)OC)[C@H](OC(C)=O)[C@]5(CC)C=CCN6CC[C@]43[C@@H]65)C2)C1 [vincristine]
time at which cytotoxicity is manifest (MES-SA [1]; 100 μM vincristine, FIG. 46): 5 h
sensitivity of MES-SA (MES-SA [2]): sensitive
time at which cytotoxicity is manifest (Dx5): 10 h

N#CC(C#N)=NNc1cccc(Cl)c1 [CCCP, carbonylcyanide chlorophenylhydrazone]
recovery time after removal of the uncoupler ([3]; 20 μmM CCCP): about 20 min.
stimulation of acidification rate ([3]; 20 μmM CCCP, FIG. 42): prompt, faster than the resolution of the apparatus
concentration of maximum stimulation of the acidification rate ([3]; dose-response experiments): 2 to 5 µM

CC(C)[C@@H]1NC(=O)[C@H](C)OC(=O)[C@@H](C(C)C)NC(=O)[C@@H](C(C)C)OC(=O)[C@H](C(C)C)NC(=O)[C@H](C)OC(=O)[C@@H](C(C)C)NC(=O)[C@@H](C(C)C)OC(=O)[C@H](C(C)C)NC(=O)[C@H](C)OC(=O)[C@@H](C(C)C)NC(=O)[C@@H](C(C)C)OC1=O [valinomycin]
fold induction at 100 µM (L cells [4]): ~2.4
peak metabolic rate relative to the initial rate (L cells [5]): more than double the initial rate
time of return of metabolic activity approximately to the initial value (L cells [5]): ≤ 20 min
time to peak of metabolic activity (L cells [5]): four

CNC[C@H](O)c1ccc(O)c(O)c1 [epinephrine]
inhibition at 208 µM (MDCK cells [6]; read-out: decrease in metabolic rate vs. medium only): 3%
inhibition at 3 µM (MDCK cells [6]; read-out: decrease in metabolic rate vs. rate immediately after removal of the higher concentration): 4.5%
activation at 3 µM (MDCK cells [7]; read-out: additional increase in metabolic rate on re-exposure): 7%
activation at 3 µM (MDCK cells [7]; read-out: increase in metabolic rate): 20%
activation at 3 µM (MDCK cells [7]; read-out: increase in metabolic rate over the control rate on re-exposure): 20%
activation at 3 µM (MDCK cells [7]; read-out: metabolic rate above control rate after removal): 12%

NC(N)=O [urea]
change of pH (Proteus mirabilis): increases the pH

[Cl-].[Cl-].[Mg+2] [MgCl, magnesium chloride]
increase in metabolic rate vs. medium only (MDCK cells [8]): 40-46%

EGF: epidermal growth factor (mouse EGF) (NSYPGCPSSYDGYCLNGGVCMHIESLDSYTCNCVIGYSGDRCQTRDLRWWELR; Epidermal growth factor; UniProt P01132 977-1029, looked up)
metabolic response of keratinocytes to EGF ([9]; 5 ng/ml mouse EGF, FIG. 43): metabolic burst
metabolic rate at the peak ([9]; 50 ng/mL EGF, FIG. 44): nearly doubled
time from peak to decay to a steadily rising baseline ([9]; 50 ng/mL EGF, FIG. 44): 15 min
time to peak of response ([9]; 50 ng/mL EGF, FIG. 44): ~ 15 min
time to rise in metabolic rate ([9]; 50 ng/mL EGF, FIG. 44): ≤ 5 min
lowest concentration with observable stimulation of acidification rate ([9]; EGF): 0.1 ng/mL
effect on glycolytic rate [10]: rapid increase in glycolytic rate

O=C[C@H](O)[C@@H](O)[C@H](O)[C@H](O)CO [glucose]
change of pH (Proteus mirabilis): decreased the pH

NC(=O)c1ncn([C@@H]2O[C@H](CO)[C@@H](O)[C@H]2O)n1 [ribavirin]
effect on VSV-induced change of host cell metabolism [11]: inhibition

CN1[C@@H]2CC[C@H]1C[C@@H](OC(=O)C(CO)c1ccccc1)C2 (some centres unmarked) [Atropine]
effect on cells alone [12]: no significant effect

polymyxin
response to antibiotic (E. coli): do respond

COc1cccc2c1C(=O)c1c(O)c3c(c(O)c1C2=O)C[C@@](O)(C(=O)CO)C[C@@H]3O[C@H]1C[C@H](N)[C@H](O)[C@H](C)O1 [doxorubicin]
time at which decreased acidification rates are evident (MES-SA [1]; 1 μM doxorubicin, FIG. 45): 15 h
time at which cytotoxicity is manifest (MES-SA [1]; 100 μM): 0.5 h
sensitivity of MES-SA (MES-SA [2]): sensitive
time at which decreased acidification rates are evident (Dx5; 1 μM doxorubicin, Dx5, FIG. 45): > 50 h
time at which cytotoxicity is manifest (Dx5): 2.5 h

CC1(C)S[C@@H]2[C@H](NC(=O)Cc3ccccc3)C(=O)N2[C@H]1C(=O)O [penicillin]
response to antibiotic (E. coli): do not respond

— patent US5496697A, “Methods and apparatus for detecting the effect of cell affecting agents on living cells” (priority 1993, dated 1996)
